In US10906884B2, “Benzodiazepine derivatives as CCK2/gastrin receptor antagonists” (Trio Medicines Ltd, priority 2014, dated 2021):

Key:
[1] = system: AGSGR cells (gastric adenocarcinoma cell line transfected with human gastrin/CCK2 receptor gene); test: Sulphorhodamine-B (SRB) proliferation assay, G17-treated cells; type: cell-based; conditions: G17 10 nM
Description: The potency of (TR2) and (TR3) was tested in a sulphorhodamine-B (SRB) proliferation assay in a human gastric adenocarcinoma cell line stably transfected with the human gastrin/CCK2 receptor gene (AGSGR). SRB is a fluorescent dye that binds to proteins, so cells with a high rate of protein synthesis (proliferative cells) will show high levels of fluorescence in the SRB assay. […] (TR2) and (TR3) were compared with the positive controls YF476 and YM022.

[2] = Pharmacokinetics in healthy subjects, single oral dose, API in capsule; conditions: human, in vivo, po, 100 mg
Description: In an initial study, healthy volunteers took a single oral dose of 100 mg (TR2) as an active pharmaceutical ingredient (API) in a capsule. Plasma concentrations were measured.
In further clinical studies, healthy volunteers (n=8) took single oral doses of 5, 15, 50 and 100 mg (TR2) as an active pharmaceutical ingredient (API) in a capsule. (Capsule formulation TR2 powder (API) in a hard gelatin capsule, no excipients, no processing). Plasma concentrations were measured.
Healthy volunteers (n=8) took single oral doses of 5, 15, 25 and 50 mg (TR2-A) as API in a capsule (TR2-A (crystalline) in hard gelatin capsule with no excipient, no processing of the API). Plasma concentrations of (TR2) and (TR2-A) were measured. The area under the curve of plasma concentrations of (TR2) after a single oral dose of 50 mg of (TR2-A) API (AUC0-24 h=212.5) was about the same as that observed for a similar formulation of a single oral dose of (TR2) 100 mg (AUC0-24 h=241.5).

panel of 80 receptors = test: Receptor binding screen, radiolabelled ligands, scintillation counting; conditions: other than CCK2 and CCK1
Description: The potential of (TR2) and (TR3) to bind to other cellular and nuclear receptors was tested in a panel of 80 receptors. The assay used radiolabelled receptor ligands (agonist or antagonist, depending on the receptor), and the ability of the test compounds to inhibit ligand binding was measured by scintillation counting.

CCK1 (human) = target: T1, CCK1 (human) (Homo sapiens, UniProt P32238); test: CCK1 receptor functional assay (antagonist effect, cAMP, HTRF); type: cell-based; conditions: stimulus CCK-8s 300 nM, 10 min 37° C., CHO cells
T1 construct: expressed in transfected cells; host or cells: CHO cells
T1 sequence (P32238 1-428): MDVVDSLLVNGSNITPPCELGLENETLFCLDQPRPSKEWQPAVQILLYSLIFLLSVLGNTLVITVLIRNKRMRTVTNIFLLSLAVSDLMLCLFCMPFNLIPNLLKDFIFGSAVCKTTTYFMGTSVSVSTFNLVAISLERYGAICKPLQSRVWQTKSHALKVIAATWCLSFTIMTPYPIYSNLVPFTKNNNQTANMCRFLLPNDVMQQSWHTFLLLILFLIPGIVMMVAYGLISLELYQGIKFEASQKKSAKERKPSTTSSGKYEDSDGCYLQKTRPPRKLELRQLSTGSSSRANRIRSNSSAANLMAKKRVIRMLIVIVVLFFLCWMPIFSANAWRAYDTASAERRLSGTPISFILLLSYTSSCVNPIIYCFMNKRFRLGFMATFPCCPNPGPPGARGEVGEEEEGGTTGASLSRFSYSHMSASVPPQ
Excerpt: (§1) (TR2) and (TR3) were compared with YF476 and YM022 in CCK1 and CCK2 receptor functional assays with the following assay criteria.
(§2) The potency of the antagonists is expressed as IC50, the concentration of antagonist that causes a half-maximum inhibition of the control agonist response. The affinity of the antagonist for the receptor is expressed as KB, the concentration of antagonist, which would occupy 50% of the receptors at equilibrium.

[3] = system: pentagastrin-stimulated gastric acid secretion; test: Pentagastrin-stimulated gastric acid secretion in conscious rats with a chronic gastric fistula; type: in vivo; conditions: Rattus norvegicus, sc, read-out: ED50, inhibition of pentagastrin-stimulated gastric acid secretion
Description: The effect of subcutaneous injections of YF476, (TR2) and (TR3) on pentagastrin-stimulated gastric acid secretion was tested in conscious rats with a chronic gastric fistula.

CCK2 (human) [4] = target: T2, CCK2 (human) (Homo sapiens, UniProt P32239); test: CCK2 receptor functional assay (antagonist effect, cAMP, HTRF); type: cell-based; design: expressed in transfected cells; host or cells: CHO cells; conditions: for IC50 / Kb: stimulus CCK-8s 10 nM, 10 min 37° C., CHO cells; for IC50: read-out: CCK2 IC50; for Kb: read-out: CCK2 KB
T2 sequence (P32239 1-447): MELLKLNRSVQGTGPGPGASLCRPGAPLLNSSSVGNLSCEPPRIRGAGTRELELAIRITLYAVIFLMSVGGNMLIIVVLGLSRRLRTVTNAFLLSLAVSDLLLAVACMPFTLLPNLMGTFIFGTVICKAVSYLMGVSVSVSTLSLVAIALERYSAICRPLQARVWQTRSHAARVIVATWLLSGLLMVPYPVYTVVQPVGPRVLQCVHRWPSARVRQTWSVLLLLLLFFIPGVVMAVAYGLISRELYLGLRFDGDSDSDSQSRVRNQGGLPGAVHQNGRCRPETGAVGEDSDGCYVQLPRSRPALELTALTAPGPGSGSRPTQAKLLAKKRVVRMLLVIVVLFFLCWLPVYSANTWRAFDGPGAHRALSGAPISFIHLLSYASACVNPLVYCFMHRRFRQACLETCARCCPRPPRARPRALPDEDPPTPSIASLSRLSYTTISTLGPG
Excerpt: as §1, §2

[5] = system: gastrin-stimulated acid secretion; conditions: oral, healthy men; cited from earlier work
[6] = in vivo; cited from earlier work
CCK2 (human) [7] = target: T2, CCK2 (human); conditions: cited from earlier work
[8] = cited from earlier work
panic attacks = conditions: patients; cited from earlier work

CNc1cccc(NC(=O)N[C@@H]2N=C(c3ccccn3)c3ccccc3N(CC(=O)C(C)(C)CO)C2=O)c1 [TR2, (R)-1-[1-(4-Hydroxy-3,3-dimethyl-2-oxo-butyl)-2-oxo-5-pyridin-2-yl-2,3-dihydro-1H-benzo[e][1,4]diazepin-3-yl]-3-(3-methylamino-phenyl)-urea]
Inhibition of the anti-proliferative effects of G17 ([1]; compound 100 nM): completely inhibited | AUC [2]: 439 ng·h/mL | AUC(0-t) [2]: 242 ng·h/mL | Mean AUC0-24 h of plasma concentrations [2]: 241.5 ng·h/mL | Binding to other cellular and nuclear receptors (inhibition of ligand binding) (panel of 80 receptors): No significant receptor binding | IC50 (CCK1 (human)): 1000 nM | ED50 [3]: 0.03 µmol/kg | Selectivity IC50 (CCK1)/IC50 (CCK2) (CCK2 (human) [4]): 400 | Selectivity KB (CCK1)/KB (CCK2) (CCK2 (human) [4]): 484 | Affinity for the CCK2 receptor, fold lower than that of YF476 (CCK2 (human) [4]; relative to YF476): about 5 fold | Selectivity for CCK2 over CCK1 receptor, higher than the selectivity of YF476 (CCK2 (human) [4]; relative to YF476): 30% | Potency in CCK2 assay, fold less potent than YF476 and YM022 (CCK2 (human) [4]; relative to YF476 and YM022): about 5 fold | Affinity for the CCK2 receptor relative to YM022 (CCK2 (human) [4]; relative to YM022): twice that of YM022 | IC50 (CCK2 (human) [4]): 2.5 nM | Kb (CCK2 (human) [4]): 0.31 nM

CNc1cccc(NC(=O)N[C@H]2N=C(c3ccccn3)c3ccccc3N(CC(=O)C(C)(C)CO)C2=O)c1 [TR3]
Inhibition of the anti-proliferative effects of G17 ([1]; compound 500 nM): had the same effect | Binding to other cellular and nuclear receptors (inhibition of ligand binding) (panel of 80 receptors): No significant receptor binding | IC50 (CCK1 (human)): 8500 nM | ED50 [3]: 0.3 µmol/kg | Selectivity IC50 (CCK1)/IC50 (CCK2) (CCK2 (human) [4]): 86 | Selectivity KB (CCK1)/KB (CCK2) (CCK2 (human) [4]): 108 | IC50 (CCK2 (human) [4]): 99 nM | Kb (CCK2 (human) [4]): 12 nM

Cc1cccc(NC(=O)N[C@@H]2N=C(c3ccccc3)c3ccccc3N(C)C2=O)c1 [L-365,260]
Inhibition of gastrin-stimulated acid secretion [5]: only modest and short lasting inhibition | Oral bioavailability [6]: poor | Affinity at CCK2 receptors (CCK2 (human) [7]): nanomolar | Selectivity versus the CCK1 receptor (CCK2 (human) [7]): 140 fold | Aqueous solubility [8]: low | Limiting panic attacks (panic attacks): ineffective
